# What was measured:
# Assay type in all cases: cell-based
# Molm-14 = assay: Cell proliferation inhibition in AML cell line Molm-14 (Alamar Blue); details: Homo sapiens, Molm-14, 72 hours, read-out: Cell proliferation inhibitory activity (GI50) Molm-14
# Description: (§1) Cell proliferation inhibition experiments on acute myeloid leukemia (AML) cell lines tested FLT3 inhibitory activity using MV4-11, Molm-13, and Molm-14 cells, which are FLT3-ITD-expressed AML cell lines. The origin of all cell lines is human-derived cell lines, and the place of purchase and culture conditions of each cell line are as follows.
# (§2) MV4-11 cells were purchased form the American Type Culture Collection (ATCC, Rockville, MD, USA, cat #CRL-9591), Molm-13 (DSMZ, cat #ACC554), Molm-14 (DSMZ, cat #ACC777), and then cultured in RPMI 1640 medium (Corning Co. 10-040-CV) supplemented with 10% fetal bovine serum, 1% penicillin/streptomycin and 4 mM L-glutamine (Life Technology, GrandIsland, NY).
# (§3) Cell viability was evaluated by Resazurin redox-based analysis method with Alamar Blue Assay Kit (Invitrogen, USA). Specifically, for MV4-11, Molm-13 and Molm-14 cells, 8000 cells were plated on 384-well plates in 45 μl of medium. Compounds were treated with dimethyl sulfoxide (DMSO) as a negative control group. After 3 days (72 hours) of compound addition, 5 μl of Alamar Blue kit reagent was added to each well of 384-well plate and incubated at 37° C. for 2 hours in a humidified CO2 incubator. After incubation, fluorescence density (Flu) was measured at a wavelength of 544 nm and 590 nm using SpectraMax iD3 Multi Mode Microplate Reader (Molecular Devices, ID3-STD). GI50 was calculated by nonlinear regression using Prism version 5.01 (GraphPad, LaJolla, CA, USA).
# Molm-13 = assay: Cell proliferation inhibition in AML cell line Molm-13 (Alamar Blue); details: Homo sapiens, Molm-13, 72 hours, read-out: Cell proliferation inhibitory activity (GI50) Molm-13
# Description: as §1, §2, §3
# MV4-11 = assay: Cell proliferation inhibition in AML cell line MV4-11 (Alamar Blue); details: Homo sapiens, MV4-11, 72 hours, read-out: Cell proliferation inhibitory activity (GI50) MV4-11
# Description: as §1, §2, §3
Structure (SMILES),GI50 (Molm-14) [nM],GI50 (Molm-13) [nM],GI50 (MV4-11) [nM]
"O=C1Nc2cc(Br)ccc2/C1=C1/Nc2ccccc2/C1=N\OCCN1CCNCC1 [Comparative Example 1, reference compound]",9.36,11.2,20
"O=C1Nc2ccc(Br)cc2/C1=C1/Nc2ccccc2/C1=N\OCCN1CCNCC1 [Comparative Example 2, reference compound]",4.08,4.08,7
"O=C1Nc2ccc(F)cc2/C1=C1/Nc2ccccc2/C1=N\OCCN1CCNCC1 [Comparative Example 3, reference compound]",1.6,2.53,3.7
